Literature values as cited in patent US20220370506A1, “AUGMENTATION OF FIBROBLAST MEDIATED REGENERATION OF INTRAVERTEBRAL DISCS” (FIGENE, LLC, priority 2019, published 2022).

Tested on: patients with chronic lumbosacral radiculopathy or discogenic low back pain
[1] = authors' conclusion, single low dose intradiscal

In the case of etanercept, the “pain scores between or within groups” value (1-month follow-up, 0.1, 0.25, 0.5, 0.75, 1.0, or 1.5 mg intradiscally in each pain-generating disc, any dose range or subgroup) is given as “no differences”, the “disability scores between or within groups” value (1-month follow-up, 0.1-1.5 mg intradiscally, any dose range or subgroup) is given as “no differences” and the “effectiveness as treatment for chronic radicular or discogenic low back pain” value [1] is given as “does not seem to be an effective treatment”. The serious side effects [1] was “no serious side effects were observed”, the complications (intradiscal 0.1-1.5 mg, 36 patients) was “No complications were reported” and the “preprocedure versus postprocedure leukocyte counts” value (intradiscal 0.1-1.5 mg, 1-month follow-up) was “no differences were noted”.
